What all share (assay): inhibition of tumour cell growth, NCI panel, 48 h
In experiment [1] the test system is SW-620 colon.
Experiment [2] concerns DU-145 prostate.
For experiment [3], the system named is OVCAR-8 ovarian.
Experiment [4] deals with NCI/ADR-RES ovarian.
Experiment [5] concerns HCT-15 colon.
For experiment [6], the system named is KM12 colon.
In experiment [7] the test system is NCI-H23 lung.
In experiment [8] the test system is RPMI-8226 leukemia.
In experiment [9] the test system is T-47D breast.
The test system of experiment [10] is MALME-3M melanoma.

This is an account of results in PubChem BioAssay (NCI).

Structures are written as SMILES. “And” between values parts separate entries of the source, which are not always exact repeats. Equal entries are not always repeated.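 Each compound was tested at five concentrations against cells in 96-well plates for 48 hours. Here, GI50 denotes the concentration required for 50% inhibition of growth. At the TGI there is no net growth.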

In the case of `CCOC(=O)COc1ccc2c(C)cc(=O)oc2c1`, the TGI in experiment [1], in [2], in experiment [3], in [4], in [5] and in experiment [6] was more than 100 µM in each case. Besides, the TGI in [7], in experiment [8], in experiment [9] and in [10] was more than 100 µM in each case.
As to `COc1cc(-c2nn(-c3cccc(NC(=O)c4ccc(Cl)c(C(F)(F)F)c4)c3)cc2-c2ccncc2)ccc1Cl`, the GI50 in experiment [1] was 2.87 µM; in [2], 5.46 µM; in experiment [3], 3.35 µM; in experiment [4] it was 1.18 µM; in experiment [5] it was 3.15 µM; in [6], 1.6 µM. The GI50 in experiment [7] is 3.14 µM; in experiment [8], 1.08 µM; in [9], 1.3 µM; in experiment [10], 0.922 µM. For the same molecule, the TGI was more than 32.5 µM in [1]; more than 32.5 µM in experiment [2]; more than 32.5 µM in experiment [3]; 15 µM in experiment [4]; more than 32.5 µM in [5]; more than 32.5 µM in [6]. In addition, the TGI was more than 32.5 µM in experiment [7], more than 21.8 µM in experiment [8], more than 32.5 µM in experiment [9] and 6.68 µM in experiment [10].
In the case of `COc1nnc2ccc(N3CCC(c4ccc(OCCN5CCN(C)C(=O)[C@H]5C)cc4)CC3)nn12`, the GI50 in experiment [1] is 5.03 µM; in experiment [2], 9.88 µM; in experiment [3], 0.544 µM; in experiment [4], 0.845 µM; in experiment [5], 0.0869 µM; in experiment [6], 0.322 µM. In addition, the GI50 in experiment [7] is 0.356 µM; in experiment [8] it was 0.0229 µM; in [9], 0.0618 µM; in experiment [10] it was 0.431 µM. Further, the TGI in experiment [1], in [2], in experiment [3], in experiment [4], in experiment [5] and in [6] was more than 100 µM throughout. The TGI in [7] is more than 100 µM; in experiment [8], 54 µM; in experiment [9], more than 69.2 µM; in [10] it was more than 100 µM.
On to `NC(=S)c1c(N)n(C2OC(CO)C(O)C2O)c2ncnc(N)c12` (stereo not given), for which the GI50 in [1] is 0.177 µM; in experiment [2] it was 0.278 µM; in [3] it was 0.232 µM; in experiment [4] it was 0.276 µM; in experiment [5], 0.0573 µM; in experiment [6] it was 0.258 µM. For the same molecule, the GI50 in experiment [7] was 0.258 µM; in experiment [8] it was 0.511 µM; in experiment [9], 0.238 µM; in experiment [10], 0.426 µM. For the same molecule, the TGI is 0.836 µM in experiment [1]; more than 100 µM in experiment [2]; 0.863 µM in experiment [3]; 1.27 µM in experiment [4]; 0.435 µM in experiment [5]; 9.61 µM in experiment [6]. In addition, the TGI in experiment [7] came out at 1.14 µM; in experiment [8], 3.05 µM; in experiment [9] it was 1.17 µM; in experiment [10], 2.23 µM.
As for `CN(C)C(=S)SCC(=O)Nc1ccccc1`, the TGI in experiment [1], in experiment [2], in experiment [3], in experiment [4], in experiment [5] and in experiment [6] was more than 100 µM throughout. Besides, the TGI in experiment [7], in experiment [8], in [9] and in experiment [10] was more than 100 µM each time.
On to `CC1=C(C(=O)Nc2ccc(Cl)c(C(=O)OC(C)C)c2)SCCO1`, for which the TGI in experiment [1] was more than 79.4 µM; in [2], more than 100 µM; in experiment [3], more than 100 µM; in experiment [4], more than 91.8 µM; in [5], more than 100 µM; in experiment [6] it was more than 100 µM. The TGI in experiment [7] is 96.3 µM; in experiment [8], 67.7 µM; in experiment [9], more than 100 µM; in experiment [10] it was 92.2 µM.
Regarding `CCC(=O)c1c(C(F)(F)F)n([O-])c2cc(F)c(F)cc2[n+]1=O`, the GI50 was 0.46 µM in experiment [1]; 0.832 µM in experiment [2]; 0.632 µM in experiment [3]; 0.822 µM in experiment [4]; 1.91 µM in experiment [5]; 1.51 µM in experiment [6]. Besides, the GI50 in experiment [7] is 0.807 µM; in [8] it was 0.394 µM; in experiment [9], 0.57 µM; in experiment [10], 0.845 µM. Moreover, the TGI was 2.21 µM in [1]; 2.33 µM in experiment [2]; 1.59 µM in experiment [3]; 2.35 µM in [4]; more than 100 µM in [5]; 3.13 µM in experiment [6]. Further, the TGI in [7] was found to be 2.24 µM; in experiment [8] it was 1.6 µM; in experiment [9], 7.04 µM; in [10], 2.24 µM.
With `Cc1ccc(S(=O)(=O)NC(CN)C(=O)O)cc1` (stereo not given), the TGI in experiment [1], in [2], in experiment [3], in [4], in experiment [5] and in experiment [6] was more than 100 µM each time. Besides, the TGI in experiment [7], in experiment [8], in experiment [9] and in experiment [10] was more than 100 µM throughout.
Regarding `O=C(CN1C(=O)S/C(=C\C(Cl)=C\c2ccccc2)C1=O)NC1C=CS(=O)(=O)C1` (stereo not given), the GI50 is 0.553 µM in experiment [1]; 1.83 µM in [2]; 0.939 µM in experiment [3]; 1.99 µM in experiment [4]; 0.378 µM in experiment [5]; 1.78 µM in experiment [6]. In addition, the GI50 in experiment [7] was 2.09 µM; in experiment [8] it was 0.477 µM; in [9], 0.917 µM; in experiment [10], 1.27 µM. In addition, the TGI in experiment [1] was 2.86 µM; in experiment [2] it was 4.27 µM; in experiment [3] it was more than 100 µM; in experiment [4], more than 100 µM; in experiment [5] it was 3.47 µM; in experiment [6], 4.11 µM. Also, the TGI in [7] came out at 7.17 µM; in experiment [8], 4.33 µM; in experiment [9], 8.19 µM; in experiment [10], 3.93 µM.
With `Cc1cc([N+](=O)[O-])c2ccccc2[n+]1[O-]`, the GI50 in experiment [1] is 0.0728 µM and 0.0543 µM; in experiment [2], 0.073 µM and 0.0815 µM; in experiment [3], 0.683 µM and 0.688 µM; in experiment [4], 0.547 µM and 1.42 µM; in [5], 0.185 µM and 0.213 µM; in experiment [6] it was 0.173 µM and 0.203 µM. Moreover, the GI50 in [7] was 0.504 µM and 0.59 µM; in experiment [8], 0.0602 µM and 0.0308 µM; in [9] it was 0.385 µM and 0.534 µM; in experiment [10], 1.39 µM and 2.17 µM. Besides, the TGI in [1] is 0.766 µM and 0.523 µM; in experiment [2], 0.325 µM and 0.564 µM; in experiment [3], 3.88 µM and 4.86 µM; in [4], 3.45 µM and 7.68 µM; in experiment [5], 0.797 µM and 1.03 µM; in [6] it was 0.829 µM and 1.05 µM. Moreover, the TGI in experiment [7] is 2.51 µM and 3.75 µM; in experiment [8], 0.359 µM and 0.0948 µM; in experiment [9], 3.23 µM and 4.89 µM; in [10] it was 3.07 µM and 4.34 µM.
As for `NS(=O)(=O)OCCCCCCCOS(N)(=O)=O`, the TGI is 1280 µM in experiment [1]; 873 µM in experiment [2]; 707 µM in experiment [3]; 1050 µM in experiment [4]; 1190 µM in experiment [5]; 1000 µM in [6]. Besides, the TGI in experiment [7] was determined as 795 µM; in [8], 1330 µM; in [9] it was 1880 µM; in [10], 1050 µM.
As to `CCn1c(-c2nonc2N)nc2cncc(C(=O)N3CC[C@H](N)C3)c21`, the GI50 is more than 25 µM in experiment [1]; more than 25 µM in [2]; more than 25 µM in [3]; more than 25 µM in [4]; 8.29 µM in [5]; more than 25 µM in experiment [6]. The GI50 in experiment [7] was more than 25 µM; in experiment [8], more than 25 µM; in experiment [9], 24.9 µM; in [10], more than 25 µM. Further, the TGI in experiment [1], in [2], in experiment [3], in experiment [4], in experiment [5] and in [6] was more than 25 µM each time. Moreover, the TGI in experiment [7], in experiment [8], in experiment [9] and in [10] was more than 25 µM each time.
Regarding `CCN(CC)Cc1cc2[nH]c3c4ccc(Cl)cc4ncc3c2cc1OC`, the GI50 is 2.3 µM and 1.91 µM in experiment [1]; 3 µM and 2.46 µM in experiment [2]; 3.63 µM and 2.5 µM in experiment [3]; 3.67 µM and 3.31 µM in [4]; 2.05 µM and 2.46 µM in experiment [5]; 2.18 µM and 1.72 µM in experiment [6]. Also, the GI50 is 6.07 µM and 3.33 µM in experiment [7]; 1.26 µM and 1.87 µM in experiment [8]; 16.5 µM and 17.4 µM in [9]; 1.72 µM and 1.99 µM in experiment [10]. The TGI in experiment [1] is 6.72 µM and 4.44 µM; in experiment [2], 9.18 µM and 6.38 µM; in experiment [3], 12.2 µM and 7.41 µM; in experiment [4], 13.5 µM and 12 µM; in [5], 8.66 µM and 6.94 µM; in experiment [6], 7.09 µM and 4.37 µM. Besides, the TGI is 20.3 µM and 14.4 µM in experiment [7]; 5.09 µM and 4.56 µM in [8]; 31.7 µM and 33.6 µM in experiment [9]; 3.33 µM and 3.75 µM in [10].
Consider `Cc1cc(N2CCN(C)CC2)n2nc(-c3ccc(Cl)cc3)nc2n1`, for which the TGI in experiment [1], in experiment [2], in [3], in experiment [4], in experiment [5] and in experiment [6] was more than 100 µM throughout. For the same molecule, the TGI in [7], in [8], in experiment [9] and in [10] was more than 100 µM each time.
